Values of other authors, collected in patent US11458160B2, “Food supplements for use in the prophylaxis and treatment of migraine” (CRISTALFARMA S.R.L., priority 2017, dated 2022).

Assays:
[1] = magnesium sulphate intravenously, same amount
[2] = weeks 9-12; 600 mg magnesium per day orally for 12 weeks; 81 patients; p<0.05

| SMILES | efficacy compared with intravenous ketorolac [1] | reduction of attack frequency compared to the baseline [2] |
| --- | --- | --- |
| O=S(=O)([O-])[O-].[Mg+2] [magnesium sulphate] | as effective as an intravenously administered NSAID such as ketorolac | – |
| O=C([O-])CC(O)(CC(=O)[O-])C(=O)[O-].O=C([O-])CC(O)(CC(=O)[O-])C(=O)[O-].[Mg+2].[Mg+2].[Mg+2] [magnesium, tri-magnesium di-citrate] | – | 41.6% |
